Laboratory results reported in patent US7135466B2 (Kirin Beer Kabushiki Kaisha, priority 1999, dated 2006).
Where two headings read alike, the source gives them in different places.

Experiments:
PDGF-Ra = target: T1, PDGF-Ra (Homo sapiens, UniProt P16234); assay: Inhibitory activity against PDGF-Ra phosphorylation by PDGF-AA stimulation using G292; assay type: cell-based; conditions: for IC50: > means inhibition at indicated concentration not more than 50%, < and << not less than 50%, read-out: PDGF (E) IC50; for inhibition at 0.1 µM: G292, figure within parentheses in >100( ), at 100 nM, read-out: PDGF (E) inhibition (%) at 100 nM
T1 construct: host or cells: G-292 human osteosarcoma cells
Outline: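 Phospho-PDGF-Ra ELISA: capture with PY-20 antiphosphotyrosine, detection with anti-PDGF-Ra and peroxidase secondary, read at 450 nm. Lysates came from G-292 osteosarcoma cells starved in 0.1% FBS, compound-treated 1 hr at 37° C, and stimulated with 50 ng/ml PDGF-AA for 5 min.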

c-kit = target: T2, c-kit (Homo sapiens, UniProt P10721); assay: Inhibitory activity against c-kit autophosphorylation (MO7e cells, h-SCF); assay type: cell-based; conditions: for inhibition at 1 µM: Mo7e; for IC50: MO7e cells, read-out: c-kit IC50
T2 construct: MO7e (human megakaryocytic leukemia cell line) which had been arrested for 20 hr; endogenous in cells; host or cells: MO7e human megakaryocytic leukemia cell line
Outline: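 First, human megakaryocytic leukemia MO7e cells arrested 20 hr receive compound for one hour. Second, SCF stimulation (50 ng/ml) runs 5 min, after which cells are solubilized. Third, tyrosine-phosphorylated c-kit in the lysate is quantified by sandwich ELISA with absorbance at 450 nm.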

[1] = figure within parentheses in −( ) or >1000( ), at 1000 nM
[2] = figure in parentheses in −( ), at 1000 nM

T2 sequence (P10721 26-976): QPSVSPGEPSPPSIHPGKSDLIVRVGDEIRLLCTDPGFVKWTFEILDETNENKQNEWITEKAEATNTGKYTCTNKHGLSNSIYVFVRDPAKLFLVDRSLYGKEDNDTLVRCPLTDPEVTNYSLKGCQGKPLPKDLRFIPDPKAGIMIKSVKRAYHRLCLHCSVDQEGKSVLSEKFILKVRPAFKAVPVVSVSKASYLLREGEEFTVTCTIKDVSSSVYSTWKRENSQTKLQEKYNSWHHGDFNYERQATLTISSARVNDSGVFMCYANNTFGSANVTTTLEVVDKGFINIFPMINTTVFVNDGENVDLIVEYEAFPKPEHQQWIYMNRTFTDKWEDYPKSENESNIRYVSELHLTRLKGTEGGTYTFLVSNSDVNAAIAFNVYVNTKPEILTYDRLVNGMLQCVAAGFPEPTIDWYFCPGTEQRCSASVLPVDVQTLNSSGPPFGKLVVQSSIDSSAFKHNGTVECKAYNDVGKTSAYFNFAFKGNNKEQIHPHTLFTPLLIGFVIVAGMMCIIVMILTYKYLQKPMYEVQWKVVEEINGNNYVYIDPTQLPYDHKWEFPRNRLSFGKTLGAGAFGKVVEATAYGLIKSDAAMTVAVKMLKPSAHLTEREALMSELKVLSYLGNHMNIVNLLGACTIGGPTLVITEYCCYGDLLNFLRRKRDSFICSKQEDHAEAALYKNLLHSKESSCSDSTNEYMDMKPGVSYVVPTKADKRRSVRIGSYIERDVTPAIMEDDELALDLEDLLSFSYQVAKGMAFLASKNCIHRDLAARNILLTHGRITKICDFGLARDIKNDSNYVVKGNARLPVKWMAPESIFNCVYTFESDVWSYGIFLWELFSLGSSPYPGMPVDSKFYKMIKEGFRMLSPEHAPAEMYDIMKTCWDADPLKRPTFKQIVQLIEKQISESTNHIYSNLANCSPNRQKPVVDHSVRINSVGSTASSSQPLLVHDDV
T1 sequence (P16234 24-1089): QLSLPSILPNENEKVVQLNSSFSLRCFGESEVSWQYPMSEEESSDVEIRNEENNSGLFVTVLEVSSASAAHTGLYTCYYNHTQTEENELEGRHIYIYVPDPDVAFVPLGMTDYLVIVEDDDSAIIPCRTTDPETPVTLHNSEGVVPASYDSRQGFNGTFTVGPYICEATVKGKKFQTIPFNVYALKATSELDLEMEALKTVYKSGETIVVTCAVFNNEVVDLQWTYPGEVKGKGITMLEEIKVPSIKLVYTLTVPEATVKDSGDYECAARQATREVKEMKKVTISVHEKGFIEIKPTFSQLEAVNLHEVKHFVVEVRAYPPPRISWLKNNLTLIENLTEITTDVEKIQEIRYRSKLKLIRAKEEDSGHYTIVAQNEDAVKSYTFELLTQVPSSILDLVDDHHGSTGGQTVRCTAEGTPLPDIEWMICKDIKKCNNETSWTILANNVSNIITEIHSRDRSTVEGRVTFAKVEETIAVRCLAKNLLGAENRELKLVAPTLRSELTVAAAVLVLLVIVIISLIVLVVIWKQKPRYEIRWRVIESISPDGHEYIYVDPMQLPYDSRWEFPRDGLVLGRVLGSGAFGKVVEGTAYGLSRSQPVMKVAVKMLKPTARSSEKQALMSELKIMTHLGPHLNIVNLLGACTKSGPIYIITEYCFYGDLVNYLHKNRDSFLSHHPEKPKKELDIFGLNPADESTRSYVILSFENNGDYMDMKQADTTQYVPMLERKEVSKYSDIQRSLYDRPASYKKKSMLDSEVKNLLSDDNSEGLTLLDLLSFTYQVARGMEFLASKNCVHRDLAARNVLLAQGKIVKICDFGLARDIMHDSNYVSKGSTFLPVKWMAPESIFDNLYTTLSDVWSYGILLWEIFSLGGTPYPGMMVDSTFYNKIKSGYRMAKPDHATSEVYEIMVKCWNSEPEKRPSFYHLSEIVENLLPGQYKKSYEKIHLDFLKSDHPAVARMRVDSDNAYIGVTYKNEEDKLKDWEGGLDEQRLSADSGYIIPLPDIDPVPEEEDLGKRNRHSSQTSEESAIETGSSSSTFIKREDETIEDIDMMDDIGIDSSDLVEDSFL

IC50 (PDGF-Ra)	IC50 (PDGF-Ra; Pharmacological Test Example 1)	IC50 (c-kit; h-SCF 50 ng/ml)	Molecule	further results
> 0.1 µM			C#CCC(CC)OC(=O)Nc1ccc(Oc2ncnc3cc(OC)c(OC)cc23)cc1[N+](=O)[O-] (centres unmarked) [Example 510, 1-Ethyl-3-butynyl N-{4-[(6,7-dimethoxy-4-quinazolinyl)oxy]-2-nitrophenyl}carbamate]	inhibition at 0.1 µM (PDGF-Ra): 3%; inhibition at 1 µM (c-kit; [1]): 17%
	< 0.01 µM	0.087 µM	COc1cc2nccc(Oc3ccc(NC(=O)OCC4CCC4)cc3)c2cc1OC [Example 385, Cyclobutylmethyl N-{4-[(6,7-dimethoxy-4-quinolyl)oxy]phenyl}carbamate]	
	0.052 µM	0.147 µM	COc1cc2nccc(Oc3cc(C)c(NC(=O)OCCCOc4ccccc4OC)cc3C)c2cc1OC [Example 159, 3-(2-Methoxyphenoxy)propyl N-{4-[(6,7-dimethoxy-4-quinolyl)oxy]-2,5-dimethylphenyl}carbamate]	
0.064 µM			CCN(CC)CCCOC(=O)Nc1ccc(Oc2ccnc3cc(OC)c(OC)cc23)c(C)c1C [Example 428, 3-(Diethylamino)propyl N-{4-[(6,7-dimethoxy-4-quinolyl)oxy]-2,3-dimethylphenyl}carbamate]	IC50 (c-kit; 50 ng/ml h-SCF): 0.158 µM
> 0.1 µM			CCCC(CCN1CCCCC1)OC(=O)Nc1ccc(Oc2ccnc3cc(OC)c(OC)cc23)c(C)c1C (centres unmarked) [Example 447]	inhibition at 0.1 µM (PDGF-Ra): 11%; IC50 (c-kit; 50 ng/ml h-SCF): 0.553 µM
0.046 µM			COc1cc2nccc(Oc3ccc(NC(=O)N[C@H]4CCN(Cc5ccccc5)C4)cc3)c2cc1OC [Example 565, N-[(3S)-1-Benzyltetrahydro-1H-3-pyrrolyl]-N′-{4-[(6,7-dimethoxy-4-quinolyl)oxy]phenyl}urea]	IC50 (c-kit; 50 ng/ml h-SCF): 0.17 µM
	< 0.01 µM	0.038 µM	COc1cc2ncnc(Oc3ccc(NC(=O)OCCCOc4cccc(F)c4)cc3)c2cc1OC [Example 150, 3-(3-Fluorophenoxy)propyl N-{4-[(6,7-dimethoxy-4-quinazolinyl)oxy]phenyl}carbamate]	
	> 0.1 µM		CCCCC(CCCC)OC(=O)Nc1cc(C)c(Oc2ccnc3cc(OC)c(OC)cc23)cc1C [Example 369, 1-Butylpentyl N-{4-[(6,7-dimethoxy-4-quinolyl)oxy]-2,5-dimethylphenyl}carbamate]	inhibition at 1 µM (c-kit; [2]): 36%
	0.014 µM	0.262 µM	COc1cc2nccc(Oc3cc(C)c(NC(=O)OC4CCc5ccccc5C4)cc3C)c2cc1OC (centres unmarked) [Example 292, 1,2,3,4-Tetrahydro-2-naphthalenyl N-{4-[(6,7-dimethoxy-4-quinolyl)oxy]-2,5-dimethylphenyl}carbamate]	
0.033 µM			CCN(CCNC(=S)Nc1ccc(Oc2ncnc3cc(OC)c(OC)cc23)cc1)c1ccccc1C [Example 528]	IC50 (c-kit; 50 ng/ml h-SCF): 0.343 µM
> 0.1 µM			COc1cc2nccc(Oc3ccc(NC(=O)NC4CCN(Cc5ccccc5)CC4)c(C)c3)c2cc1OC [Example 643, N-(1-Benzyl-4-piperidyl)-N′-{4-[(6,7-dimethoxy-4-quinolyl)oxy]-2-methylphenyl}urea]	inhibition at 0.1 µM (PDGF-Ra): 40%; inhibition at 1 µM (c-kit; [1]): 2%
	0.074 µM	0.144 µM	C=CCOC(=O)Nc1ccc(Oc2ncnc3cc(OC)c(OC)cc23)cc1 [Example 375, Allyl N-{4-[(6,7-dimethoxy-4-quinazolinyl)oxy]phenyl}carbamate]	
	< 0.01 µM	0.031 µM	COc1cc2nccc(Oc3ccc(NC(=O)OCCCSc4cc(C)ccc4C)cc3)c2cc1OC [Example 169, 3-[(2,5-Dimethylphenyl)sulfanyl)propyl N-{4-[(6,7-dimethoxy-4-quinolyl)oxy]phenyl}carbamate]	
0.096 µM			COc1cc2nccc(Oc3cc(C)c(NCCOc4c(OC)cccc4OC)cc3C)c2cc1OC [Example 896, N-[2-(2,6-Dimethoxyphenoxy)ethyl]-N-{4-[(6,7-dimethoxy-4-quinolyl)oxy]-2,5-dimethylphenyl}amine]	inhibition at 1 µM (c-kit; [2]): 31%
	0.012 µM	0.232 µM	COc1cc2nccc(Oc3cc(C)c(NC(=O)OCc4ccccc4Cl)cc3C)c2cc1OC [Example 241, 2-Chlorobenzyl N-{4-[(6,7-dimethoxy-4-quinolyl)oxy]-2,5-dimethylphenyl}carbamate]	
	0.011 µM	0.393 µM	COc1cc2nccc(Oc3ccc(NC(=O)OCc4ccc(C(C)(C)C)cc4)cc3)c2cc1OC [Example 57, 4-(Tert-butyl)benzyl N-{4-[(6,7-dimethoxy-4-quinolyl)oxy]phenyl}carbamate]	

IC50 (PDGF-Ra)	IC50 (PDGF-Ra; Pharmacological Test Example 1)	IC50 (c-kit; h-SCF 50 ng/ml)	Molecule	further results
	< 0.01 µM	< 0.03 µM	COc1cc2ncnc(Oc3ccc(NC(=O)OC4CCCCCC4)cc3)c2cc1OC [Example 342, Cycloheptyl N-{4-[(6,7-dimethoxy-4-quinazolinyl)oxy]phenyl}carbamate]	
> 0.1 µM			CCCCN(CCCC)CCNC(=O)Nc1ccc(Oc2ccnc3cc(OC)c(OC)cc23)cc1OC [Example 689, N-[2-(Dibutylamino)ethyl]-N′-{4-[(6,7-dimethoxy-4-quinolyl)oxy]-2-methoxyphenyl}urea]	inhibition at 0.1 µM (PDGF-Ra): 42%; IC50 (c-kit; 50 ng/ml h-SCF): 0.571 µM
> 0.1 µM			CCCCN(CCCC)C(C)CNC(=S)Nc1ccc(Oc2ncnc3cc(OC)c(OC)cc23)cc1 (centres unmarked) [Example 532, N-{4-[(6,7-Dimethoxy-4-quinazolinyl)oxy]phenyl}-N′-(2-dibutylaminopropyl)thiourea]	inhibition at 0.1 µM (PDGF-Ra): 44%; IC50 (c-kit; 50 ng/ml h-SCF): 0.752 µM
0.017 µM			COc1cc2nccc(Oc3ccc(NC(=S)NC(=O)CCc4ccccc4C)cc3)c2cc1OC [Example 731, N-{4-[(6,7-Dimethoxy-4-quinolyl)oxy]phenyl}-N′-[3-(2-methylphenyl)propanoyl]thiourea]	IC50 (c-kit; 50 ng/ml h-SCF): 0.259 µM
0.016 µM			CCCC(CCC)OC(=O)N(C)c1ccc(Oc2ncnc3cc(OC)c(OC)cc23)cc1Cl [Example 481, 1-Propylbutyl N-{2-chloro-4-[(6,7-dimethoxy-4-quinazolinyl)oxy]phenyl}-N-methylcarbamate]	inhibition at 1 µM (c-kit; [1]): 3%
	< 0.01 µM	0.145 µM	COc1cc2nccc(Oc3ccc(NC(=O)OC4CCc5ccccc5C4)c(C)c3C)c2cc1OC (centres unmarked) [Example 293, 1,2,3,4-Tetrahydro-2-naphthalenyl N-{4-[(6,7-dimethoxy-4-quinolyl)oxy]-2,3-dimethylphenyl}carbamate]	
0.016 µM			COc1cc2nccc(Oc3ccc(NC(=S)NC(=O)COc4ccccc4Cl)cc3Cl)c2cc1OC [Example 714, N-{3-Chloro-4-[(6,7-dimethoxy-4-quinolyl)oxy]phenyl}-N′-[2-(2-chlorophenoxy)acetyl]thiourea]	IC50 (c-kit; 50 ng/ml h-SCF): 0.248 µM
	< 0.01 µM	0.195 µM	COc1cc2ncnc(Oc3ccc(NC(=O)OCC4CCCCCC4)c(Cl)c3)c2cc1OC [Example 352, Cycloheptylmethyl N-{2-chloro-4-[(6,7-dimethoxy-4-quinazolinyl)oxy]phenyl}carbamate]	
	0.019 µM		COc1cc2ncnc(Oc3ccc(NC(=O)OC(C)c4ccccc4F)c(Cl)c3)c2cc1OC (centres unmarked) [Example 126, 1-(2-Fluorophenyl)ethyl N-{2-chloro-4-[(6,7-dimethoxy-4-quinazolinyl)oxy]phenyl}carbamate]	inhibition at 1 µM (c-kit; [2]): 10%
0.038 µM			CCCCN(CCCC)CCNC(=O)Nc1ccc(Oc2ncnc3cc(OC)c(OC)cc23)cc1Cl [Example 686, N-{2-Chloro-4-[(6,7-dimethoxy-4-quinazolinyl)oxy]phenyl}-N′-[2-(dibutylamino)ethyl]urea]	inhibition at 1 µM (c-kit; [1]): 19%
	< 0.01 µM	0.034 µM	COc1cc2nccc(Oc3ccc(NC(=O)OCCCSc4cc(C)ccc4C)c(C)c3C)c2cc1OC [Example 170, 3-[(2,5-Dimethylphenyl)sulfanyl]propyl N-{4-[(6,7-dimethoxy-4-quinolyl)oxy]-2,3-dimethylphenyl}carbamate]	
0.046 µM			N-{4-[(6,7-Dimethoxy-4-quinolyl)oxy]-2-chlorophenyl}-N′-(1-piperidinyl)urea [Example 595]	c-kit inhibition (%) at 1000 nM (c-kit; [1]): −(0) %
> 0.1 µM			COc1cc2nccc(Oc3ccc(NC(=O)NC4CCN(Cc5ccccc5C)CC4)cc3)c2cc1OC [Example 568, N-{4-[(6,7-Dimethoxy-4-quinolyl)oxy]phenyl}-N′-[1-(2-methylbenzyl)-4-piperidyl]urea]	inhibition at 0.1 µM (PDGF-Ra): 28%; inhibition at 1 µM (c-kit; [1]): 31%
> 0.1 µM			CCCC(CCN(CC)CC)OC(=O)Nc1cc(C)c(Oc2ccnc3cc(OC)c(OC)cc23)cc1C (centres unmarked) [Example 442, 1-[2-(Diethylamino)ethyl]butyl N-{4-[(6,7-dimethoxy-4-quinolyl)oxy]-2,5-dimethylphenyl}carbamate]	inhibition at 0.1 µM (PDGF-Ra): 32%; inhibition at 1 µM (c-kit; [1]): 28%
0.027 µM			COc1cc2ncnc(Oc3ccc(NC(=O)N[C@@H]4CCN(Cc5ccccc5)C4)c(Cl)c3)c2cc1OC [Example 575, N-[(3R)-1-Benzyltetrahydro-1H-3-pyrrolyl]-N′-{2-chloro-4-[(6,7-dimethoxy-4-quinazolinyl)oxy]phenyl}urea]	IC50 (c-kit; 50 ng/ml h-SCF): 0.664 µM
< 0.01 µM			COc1cc2nccc(Oc3ccc(NC(=S)NC(=O)CCSC)cc3)c2cc1OC [Example 1135, N-{4-[(6,7-Dimethoxy-4-quinolyl)oxy]phenyl}-N′-[3-(methylsulphenyl)propanoyl]thiourea]	IC50 (c-kit; h-SCF stimulation): 0.239 µM
